Like-named read-outs stand apart in the source and are kept apart here.
Experiments:
[1] = molecular target: T1, AHR (Homo sapiens, UniProt P35869); assay: DRE-Luciferase Reporter Assay, HepG2 AhR-Lucia reporter cells; assay type: cell-based; details: with AHR activating ligand at EC50, read-out: HepG2-Luc IC50
T1 construct: other cell line with a DRE-luciferase reporter stably transfected; endogenous in cells; host or cells: HepG2 AhR-Lucia reporter cells
T1 sequence (P35869 11-848): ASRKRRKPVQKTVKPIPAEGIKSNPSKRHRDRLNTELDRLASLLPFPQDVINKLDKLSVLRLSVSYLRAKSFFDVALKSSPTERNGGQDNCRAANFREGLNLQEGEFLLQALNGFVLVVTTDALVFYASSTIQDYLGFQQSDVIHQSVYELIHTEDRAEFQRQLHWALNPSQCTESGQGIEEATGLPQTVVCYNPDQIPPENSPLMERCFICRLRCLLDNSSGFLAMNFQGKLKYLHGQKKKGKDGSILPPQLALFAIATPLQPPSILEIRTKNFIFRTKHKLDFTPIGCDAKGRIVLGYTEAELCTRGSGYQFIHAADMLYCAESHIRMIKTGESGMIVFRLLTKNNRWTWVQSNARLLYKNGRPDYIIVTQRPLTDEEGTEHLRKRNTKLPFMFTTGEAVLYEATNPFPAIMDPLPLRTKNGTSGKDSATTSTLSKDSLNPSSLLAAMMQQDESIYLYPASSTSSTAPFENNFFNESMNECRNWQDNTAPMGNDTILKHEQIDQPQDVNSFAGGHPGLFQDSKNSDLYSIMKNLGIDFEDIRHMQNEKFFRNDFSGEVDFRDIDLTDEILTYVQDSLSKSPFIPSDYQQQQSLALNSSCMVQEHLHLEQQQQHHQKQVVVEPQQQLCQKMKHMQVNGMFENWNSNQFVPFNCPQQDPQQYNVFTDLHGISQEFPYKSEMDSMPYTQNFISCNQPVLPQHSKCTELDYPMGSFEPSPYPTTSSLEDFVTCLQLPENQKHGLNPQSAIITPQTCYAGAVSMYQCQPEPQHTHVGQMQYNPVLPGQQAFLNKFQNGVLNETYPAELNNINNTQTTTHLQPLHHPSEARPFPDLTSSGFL
Summary of the method: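 Antagonism read as inhibition of agonist-driven secreted luciferase in stably DRE-reporter-transfected cells such as HepG2 AhR-Lucia. Agonist ligand at EC50 concentration added 1 hr post-plating alongside antagonist (log series, top 100 uM); supernatant read at 24 or 48 h, IC50 derived against agonist-only maximum.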

[2] = Hepatocyte Stability Assay, human; assay type: in vitro ADME; details: for CLint scaled: human, plated hepatocytes; for CLint scaled / Human hepatocyte clearance Plated hepatocyte Alliance assay: plated hepatocyte; for Plated heps (% Qh) / Plated heps (% Qh), All: plated human hepatocytes; for Plated heps (% Qh), All: value in brackets marked "All"
[3] = Hepatocyte Stability Assay, rat; assay type: in vitro ADME; details: for Rat hepatocyte clearance: rat hepatocytes; for Suspension Rat heps Clint (% Qh): suspension rat hepatocytes; as to all read-outs here: tested at 1 µM
Method: • Preparation of working solutions: 10 mM stock solutions of test compound and positive control were prepared in DMSO. In separate conical tubes, the 10 mM solution of test compound and the positive control were diluted to 100 μM by combining 198 μL of 50% acetonitrile/50% water and 2 μL of 10 mM stock.
Preparation of Hepatocytes: Incubation medium (William's E Medium supplemented with GlutaMAX) and hepatocyte thawing medium were placed in a 37° C. water bath and allowed warming for at least 15 minutes prior to use. A vial of cryopreserved hepatocytes was transferred from storage, ensuring that vials remained at cryogenic temperatures until thawing process ensued. Cells were thawed by placing the vial in a 37° C. water bath and gently shaking the vials for 2 minutes. After thawing was completed, vial was sprayed with 70% ethanol and transferred to a biosafety cabinet. Wide-bore pipette tip were used to transfer hepatocytes into 50 mL conical tube containing thawing medium. The 50 mL conical tube were placed into a centrifuge and spun at 100 g for 10 minutes. Upon completion of spin, thawing medium was aspirated and resuspended hepatocytes in enough incubation medium to yield ˜1.5×10^6 cells/mL. Using an AO/PI Staining, cells were counted and the viable cell density was determined. Cells with poor viability (<75% viability) were determined to be not acceptable for use. Cells were diluted with incubation medium to a working cell density of 0.5×10^6 viable cells/mL.
Procedure for Stability Determination: 198 μL of hepatocytes were pipetted into each wells of a 96-well non-coated plate. The plate was placed in the incubator to allow the hepatocytes to warm for 10 minutes. 2 μL of the 100 μM test compound or positive control solutions were pipetted into respective wells of the 96-well non-coated plate to start the reaction. The plate was returned to the incubator for the designed time points. Well contents was transferred in 25 μL aliquots at time points of 0, 15, 30, 60, 90 and 120 minutes. The aliquots were then mixed with 6 volumes (150 μL) of acetonitrile containing internal standard, IS (100 nM alprazolam, 200 nM caffeine and 100 nM tolbutamide) to terminate the reaction. The mixture was vortex for 5 minutes. Samples were centrifuged for 45 minutes at 3,220 g. An aliquot of 100 μL of the supernatant was diluted by 100 μL ultra-pure water, and the mixture was used for LC/MS/MS analysis. All incubations were performed in duplicate.
Data Analysis: All calculations were carried out using Microsoft Excel. Peak areas were determined from extracted ion chromatograms. In vitro half-life (t1/2) of parent compound was determined by regression analysis of the percent parent disappearance vs. time curve.
The in vitro half-life (in vitro t1/2) was determined from the slope value:
Conversion of the in vitro t1/2 (in min) into the in vitro intrinsic clearance (in vitro CLint, in μL/min/1×10^6 cells) was done using the following equation (mean of duplicate determinations):
V=incubation volume(0.2 mL);
N=number of hepatocytes per well(0.1×10^6 cells).
“+++” indicates a CLint value less than 20 mL/min/Kg, “++” indicates a CLint between 20 and 50 mL/min/Kg, and “+” indicates an CLint above 50 mL/min/Kg.

[4] = Pharmaron assay, read-out: Human hepatocyte clearance Plated hepatocyte Pharmaron assay
[5] = Alliance assay, read-out: Human hepatocyte clearance Plated hepatocyte Alliance assay

In the case of `C[C@@H](CO)n1cnc2c(-c3cccnc3)nc(-c3ccc(C(F)(F)F)cn3)cc2c1=O` [Compound 46, (S)-3-(1-hydroxypropan-2-yl)-8-(pyridin-3-yl)-6-(5-(trifluoromethyl)pyridin-2-yl)pyrido[3,4-d]pyrimidin-4(3H)-one], the IC50 [1] is reported as under 0.1 µM, the CLint scaled [2, 4] is reported as under 20 mL/min/kg and the “Human hepatocyte clearance Plated hepatocyte Alliance assay” value ([2]; Alliance assay) is reported as “+++ (“+++” indicates a CLint value less than 20 mL/min/Kg)”. For the same molecule, the “Plated heps (% Qh)” value [2] was under 1 % Qh, the “Plated heps (% Qh), All” value [2] was 1.0 % Qh and the Rat hepatocyte clearance [3] was “+++ (“+++” indicates a CLint value less than 20 mL/min/Kg)”. The “Suspension Rat heps Clint (% Qh)” value [3] was under 24 % Qh.

With `Cn1cc(-c2nc(-c3ccc(C(F)(F)F)nc3)cc3c(=O)n(CC(C)(C)O)cnc23)cn1` [Compound 60] the IC50 [1] was under 0.1 µM, the CLint scaled [2, 4] was under 20 mL/min/kg and the Rat hepatocyte clearance [3] was “+++ (“+++” indicates a CLint value less than 20 mL/min/Kg)”.

In the case of `CC(C)(O)Cn1cnc2c(-c3cccnc3)nc(-c3ccc(C(F)(F)F)nc3)cc2c1=O` [Compound 9], the IC50 [1] is reported as under 0.1 µM, the CLint scaled [2, 4] is reported as under 20 mL/min/kg and the “Human hepatocyte clearance Plated hepatocyte Alliance assay” value ([2]; Alliance assay) is reported as “+++ (“+++” indicates a CLint value less than 20 mL/min/Kg)”. The “Plated heps (% Qh)” value [2] was 2.1 % Qh, the “Plated heps (% Qh), All” value [2] was 0.6 % Qh and the Rat hepatocyte clearance [3] was “+++ (“+++” indicates a CLint value less than 20 mL/min/Kg)”. For the same molecule, the “Suspension Rat heps Clint (% Qh)” value [3] was under 24 % Qh.

In the case of `CC(C)(O)Cn1cnc2c(-c3cccnc3)nc(-c3ccc(Cl)cc3)cc2c1=O` [Compound 18], the IC50 [1] is reported as under 0.1 µM, the CLint scaled [2, 4] is reported as under 20 mL/min/kg and the Rat hepatocyte clearance [3] is reported as “+++ (“+++” indicates a CLint value less than 20 mL/min/Kg)”.

With `C[C@@H](CO)n1cnc2c(-n3ccnc3)nc(-c3ccc(C(F)(F)F)nc3)cc2c1=O` [Compound 163, (S)-3-(1-hydroxypropan-2-yl)-8-(1H-imidazol-1-yl)-6-(6-(trifluoromethyl)pyridin-3-yl)pyrido[3,4-d]pyrimidin-4(3H)-one] the IC50 [1] was under 0.1 µM and the CLint scaled [2, 5] was under 20 mL/min/kg.

`C[C@@H](CO)n1cnc2c(-c3cnn(C)c3)nc(-c3ccc(C4CC4)nc3)cc2c1=O` [Compound 83] gave an IC50 [1] of under 0.1 µM and a CLint scaled [2, 5] of under 20 mL/min/kg.

For `C[C@H](n1cnc2c(-c3cnn(C)c3)nc(-c3ccc(Cl)cc3)cc2c1=O)C(C)(C)O` [Compound 30], the IC50 [1] was under 0.1 µM, the CLint scaled [2, 4] was under 20 mL/min/kg and the Rat hepatocyte clearance [3] was “++ (“++” indicates a CLint between 20 and 50 mL/min/Kg)”.

With `C[C@@H](CO)n1cnc2c(-c3cnn(C)c3)nc(-c3ccc(C(F)(F)F)nc3)cc2c1=O` [Compound 68] the IC50 [1] was under 0.1 µM, the CLint scaled [2, 5] was under 20 mL/min/kg and the Rat hepatocyte clearance [3] was “+++ (“+++” indicates a CLint value less than 20 mL/min/Kg)”.

For `CC(C)(O)Cn1cnc2c(-c3cccnc3)nc(-c3ccc(C(F)(F)F)cn3)cc2c1=O` [Compound 105], the IC50 [1] was under 0.1 µM, the CLint scaled [2, 4] was under 20 mL/min/kg and the Rat hepatocyte clearance [3] was “+++ (“+++” indicates a CLint value less than 20 mL/min/Kg)”.

`O=c1c2cc(-c3ccc(C(F)(F)F)nc3)nc(-c3cccnc3)c2ncn1C[C@H](O)C(F)(F)F` [Compound 57] gave an IC50 [1] of under 0.1 µM and a CLint scaled [2, 5] of under 20 mL/min/kg.

With `C[C@@H](CO)n1cnc2c(-c3cccnc3)nc(-c3ccc(C(F)(F)F)cc3)cc2c1=O` [Compound 23] the IC50 [1] was under 0.1 µM and the CLint scaled [2, 4] was under 20 mL/min/kg.

In the case of `O=c1c2cc(-c3ccc(C(F)(F)F)nc3)nc(-c3cccnc3)c2ncn1[C@@H]1COC[C@H]1O` [Compound 79], the IC50 [1] is reported as under 0.1 µM, the CLint scaled [2, 4] is reported as under 20 mL/min/kg and the Rat hepatocyte clearance [3] is reported as “+++ (“+++” indicates a CLint value less than 20 mL/min/Kg)”.

With `C[C@@H](CO)n1cnc2c(-c3cccnc3)nc(-c3ccc(C(F)(F)F)nc3)cc2c1=O` [Compound 12] the IC50 [1] was under 0.1 µM, the CLint scaled [2, 5] was under 20 mL/min/kg and the Rat hepatocyte clearance [3] was “+++ (“+++” indicates a CLint value less than 20 mL/min/Kg)”.

For `CC(C)(O)Cn1cnc2c(-c3cccnc3)nc(-c3ccc(C(F)(F)F)cc3)cc2c1=O` [Compound 16], the IC50 [1] was under 0.1 µM, the CLint scaled [2, 4] was under 20 mL/min/kg and the Rat hepatocyte clearance [3] was “+++ (“+++” indicates a CLint value less than 20 mL/min/Kg)”.

For `O=c1c2cc(-c3ccc(Cl)cc3)nc(-c3cccnc3)c2ncn1[C@H]1COC[C@@H]1O` [Compound 125, 6-(4-chlorophenyl)-3-((3S,4R)-4-hydroxytetrahydrofuran-3-yl)-8-(pyridin-3-yl)pyrido[3,4-d]pyrimidin-4(3H)-one], the IC50 [1] was under 0.1 µM, the CLint scaled [2, 4] was under 20 mL/min/kg and the Rat hepatocyte clearance [3] was “+ (“+” indicates an CLint above 50 mL/min/Kg)”.

With `C[C@@H](CO)n1cnc2c(-c3cccc(F)c3)nc(-c3ccc(C(F)(F)F)cn3)cc2c1=O` [Compound 47, (S)-8-(3-fluorophenyl)-3-(1-hydroxypropan-2-yl)-6-(5-(trifluoromethyl)pyridin-2-yl)pyrido[3,4-d]pyrimidin-4(3H)-one] the IC50 [1] was under 0.1 µM and the Rat hepatocyte clearance [3] was “+++ (“+++” indicates a CLint value less than 20 mL/min/Kg)”.

For `C[C@@H](CO)n1cnc2c(-c3cccnc3)nc(-c3ccc(OC(F)(F)F)cc3)cc2c1=O` [Compound 22], the IC50 [1] was under 0.1 µM and the Rat hepatocyte clearance [3] was “++ (“++” indicates a CLint between 20 and 50 mL/min/Kg)”.

With `Cc1ccc(-c2cc3c(=O)n([C@@H](C)CO)cnc3c(-c3cccnc3)n2)cc1` [Compound 17, (S)-3-(1-hydroxypropan-2-yl)-8-(pyridin-3-yl)-6-(p-tolyl)pyrido[3,4-d]pyrimidin-4(3H)-one] the IC50 [1] was under 0.1 µM and the Rat hepatocyte clearance [3] was “+ (“+” indicates an CLint above 50 mL/min/Kg)”.

With `C[C@@H](CO)n1cnc2c(-c3cccc(F)c3)nc(-c3ccc(Cl)cc3)cc2c1=O` [Compound 7] the IC50 [1] was under 0.1 µM and the Rat hepatocyte clearance [3] was “++ (“++” indicates a CLint between 20 and 50 mL/min/Kg)”.
